{"source": "patent US9485972B2", "about": "“Truncated tau proteins” (Axon Neuroscience SE, priority 2002, dated 2016)", "key": {"microtubules": {"test_system": "microtubules", "experiment": "Electron microscopy of microtubules formed with tau", "format": "biochemical", "text": "However, Alzheimer tau type II produces pathological microtubules with typical pattern (see FIG. 28C)."}, "[1]": {"test_system": "purified porcine brain tubulin", "experiment": "Microtubule assembly assay (MAA) with tau type IA and type IB", "format": "biochemical", "details": "tau 0.1 mg/ml, tubulin 1 mg/ml, 1 mM GTP, 37° C., 20 min", "experimental": "The physiological function of healthy tau consists in stabilizing microtubules (MTs). This function can be measured by a microtubule assembly assay (MAA). In this examples, the MAA reactions were carried out using three types of tau molecules: normal healthy human tau, recombinant forms of tau type IA (SEQ ID NO: 1) and tau type IB (SEQ ID NO: 4). Normal human tau, tau type IA and type IB were assayed individually in separate reactions. Single preparations of tau at 0.1 mg/ml were mixed with purified porcine brain tubulin at a final concentration of 1 mg/ml and 1 mM GTP, all materials in polymerisation buffer (100 mM PIPES, pH 6.9, 1 mM MgSO4, 2 mM EGTA). Tau was added last to initiate the promotion of MT assembly. After gentle and rapid mixing, the samples were pipetted into quartz microcuvettes and equilibrated at 37° C. in a thermostatically controlled spectrophotometer (Beckman Coulter DU640). The turbidity was continuously monitored at 340 nm in 10 s intervals for a period of 20 min."}, "Human tubulin": {"test_system": "Human tubulin", "experiment": "Inhibition of microtubule assembly by tau type IA and IB (tubulin preincubated, then normal human tau)", "format": "biochemical", "details": "tubulin preincubated 1 hr at 37° C. with 0.2 mg/ml type IA or IB; normal human tau 0.1 mg/ml; 340 nm, 5 min", "experimental": "Both tau type IA and IB molecules lack functional activity when applied in a the MT assembly assay (MAA). […] For inhibition of microtubule assembly, recombinant forms of tau type IA (SEQ ID NO:1) and type IB (SEQ ID NO:4) were used. The assembly-inhibition reactions were carried out separately using type IA and type IB proteins. Human tubulin (2 mg/ml) was mixed with either type IA molecules (0.2 mg/ml) or type IB molecules (0.2 mg/ml). The mixtures were incubated 1 hr at 37° C. with gently shaking. To the mixtures kept on ice normal human tau (0.1 mg/ml) and GTP (final concentration of tubulin in the mixture is 1 mg/ml and GTP 1 mM) were added in polymerization buffer (100 mM PIPES, pH 6.9, 1 mM MgSO4, 2 mM EGTA). After gentle and rapid mixing, the samples were pipetted into quartz microcuvettes and equilibrated at 37° C. in a thermostatically controlled spectrophotometer (Beckman Coulter DU640). The turbidity changes were measured at 340 nm in 10 sec intervals over a period of 5 min."}, "tau monoclonal antibody": {"test_system": "tau monoclonal antibody", "experiment": "Competitive ELISA, affinity of monoclonal antibody to tau type IA and deletion mutants", "format": "binding", "details": "read-out: apparent affinity (antigen concentration needed for 50% competition with prototype tau type IA)", "experimental": "FIG. 5: Affinity of monoclonal antibody to diseased tau type IA protein and its deletion mutants. Apparent affinity of monoclonal antibody to diseased tau type IA protein and its deletion mutants. In the first column are listed: the ‘prototype’ tau type IA protein (SEQ ID NO 1) and respective deletion mutants. In the middle column are indicated epitopes of the present invention. Apparent affinities stated in the last column were measured by competitive ELISA, and shown as the concentrations of corresponding antigen needed for 50% competition with the prototype tau type IA protein.\nThe significance of the ‘conformational region’ in tau type IA (segment A) or its parts was determined by sequential deletion either of whole conformation region (segment A) or its individual parts called epitopes and designated A1-A6. Since the conformation of type IA molecules strongly correlates with their function, the contribution of each epitope (A1-A6) to the overall conformation of the ‘segment A’ was measured on the basis of its reactivity when using a tau monoclonal antibody (FIG. 5)."}, "tubulin [2]": {"test_system": "tubulin", "experiment": "Inhibitory effect of AD-brain derived and recombinant tau type IA on normal healthy tau in microtubule assembly assay", "format": "biochemical", "details": "0.2 mg/ml type IA or IB, healthy tau 0.1 mg/ml, tubulin 1 mg/ml, preincubation 1 hr at 37° C., 340 nm, 5 min", "text": "AD-brain extracts as well as recombinant molecules of tau type IA are capable to inhibit microtubule assembly promotion when using natural healthy tau isoforms. For these experiments healthy human tau was isolated from brains of age matched controls and tau type IA was isolated from brains of AD patients (see Example 6, FIG. 6, fraction #19). Recombinant tau type IA (SEQ ID NO: 1) and type IB (SEQ ID NO:4, negative control) were produced and purified as shown in Example 6. In these experiments, brain-derived healthy tau isoforms (0.1 mg/ml), AD-brain derived or recombinant type IA tau or type IB (0.2 mg/ml) were mixed with tubulin. Each combination was assayed separately. The test mixtures were incubated 1 hr at 37° C. in a water bath with gently shaking. To the mixture kept on ice was added GTP and/or normal tau (final concentration of tubulin is 1 mg/ml and GTP 1 mM) all reagencies in polymerisation buffer (100 mM PIPES, pH 6.9, 1 mM MgSO4, 2 mM EGTA). After gentle and rapid mixing, the samples were pipetted into quartz microcuvettes and equilibrated at 37° C. in a thermostatically controlled spectrophotometer (Beckman Coulter DU640). The turbidity changes were measured at 340 nm in 10 s intervals for a period of 5 min. […] Curve 1 (FIG. 12) represents microtubule assembly promoted by normal tau."}, "tubulin [3]": {"test_system": "tubulin", "experiment": "Microtubule assembly with tau type IIA and IIB", "format": "biochemical", "details": "tau 0.1 mg/ml, tubulin 1 mg/ml, GTP 1 mM, 37° C., 340 nm, 5 min", "experimental": "The microtubule assembly reactions were carried out using three types of molecules: natural healthy human tau isoforms, Alz. tau type IIA (SEQ ID NO: 12) and tau type JIB (SEQ ID NO: 19). Three separate reactions were performed, each with single preparation of respective tau (healthy tau, recombinant tau type IIA or type IIB). Individual tau preparations at 0.1 mg/ml were mixed with tubulin and GTP (final concentration of tubulin is 1 mg/ml and GTP 1 mM), all reagencies in polymerisation buffer (100 mM PIPES, pH 6.9, 1 mM MgSO4, 2 mM EGTA). After gentle and rapid mixing, the samples were pipetted into quartz microcuvettes and equilibrated at 37° C. in a thermostatically controlled spectrophotometer (Beckman Coulter DU640). The turbidity changes were measured at 340 nm in 10 s intervals for a period of 5 min."}, "[4]": {"test_system": "neuroblastoma cells expressing tau type IIA", "experiment": "Oxidative stress (SIN-1) vulnerability, MTT reduction assay", "format": "cell-based, human", "details": "cells expressing the tau protein vs non-expressing cells, SIN-1 0-3.3 mM, 24 hours", "text": "In the present example, the oxidative decomposition of 3-morpholinosydnonimine (SIN-1) was used which generates superoxide anions and nitric oxide, which react and thereby form peroxynitrite. This very reactive radical can further oxidize mainly cellular membrane systems. Persons skilled in art will be able to also apply another sources of oxidative stress to neuroblastoma cells in culture and will be able to obtain the same effect here described by the use on SIN-1.\nThe effect of vulnerability was tested as follows: • 1. SIN-1 was applied at various concentrations (0-3.32 mM) to human neuronal cell lines expressing tau type IIA protein SEQ ID NO 15 and SEQ ID NO 11, respectively. • 2. […] The EC50 values were compared for neuroblastoma cell lines in the presence or absence of diseased tau type IIA protein expression and the statistical significance of EC50 value differences was assessed by t-test. […]\nAfter five day, SIN-1 was added in concentrations ranging from 0 to 3.3 mM and the plates were incubated for 24 hours. […] The absorbance at 540 nm with background correction at 690 nm was measured on ELISA reader and the background-subtracted values were used for EC50 calculation, as it is well known in the art. […]"}}, "note": "pIC50: −log10 of the molar value.", "data": [{"substance": "tau 43: shortest four repeat tau isoform, 383 amino acids, missing exons 2 and 3", "values": [{"measurement": "type of microtubules formed (electron microscopy)", "setting": "microtubules", "result": "forms typical microtubules"}]}, {"substance": "SEQ ID NO: 1: type IA N- and C-terminally double truncated tau, residues 239-333 of four repeat tau43", "values": [{"measurement": "microtubule assembly promotion (turbidity at 340 nm)", "setting": "[1]", "result": "lacked any MT assembly promotion"}, {"measurement": "inhibition of microtubule assembly promoted by normal human tau", "setting": "Human tubulin", "result": "abolished microtubule assembly"}, {"measurement": "pIC50", "setting": "tau monoclonal antibody", "result": 8.00}, {"measurement": "inhibition of the capacity of normal tau to promote microtubule assembly", "setting": "tubulin [2]", "result": "inhibit the capacity of normal tau to promote microtubule assembly"}]}, {"substance": "SEQ ID NO: 19: type IIB double truncated tau, 6-378, R4", "values": [{"measurement": "promotion of microtubule assembly compared to healthy tau", "setting": "tubulin [3]", "result": "promote microtubule assembly only to the level seen with healthy tau"}]}, {"substance": "normal healthy tau: tau protein derived from healthy brains [reference compound]", "values": [{"measurement": "microtubule assembly promotion (turbidity at 340 nm)", "setting": "[1]", "result": "microtubule assembly promotion capacity"}]}, {"substance": "SEQ ID NO: 12: type IIA double truncated tau, 93-333, R4", "values": [{"measurement": "promotion of microtubule assembly compared to healthy tau", "setting": "tubulin [3]", "result": "extremely high (threefold) promotion"}, {"measurement": "decrease of resistance of neuroblastoma cells to oxidative stress (EC50 of SIN-1)", "setting": "[4]", "result": 50, "unit": "%"}]}, {"substance": "SEQ ID NO: 18: type IIA double truncated tau, 69-332, R3", "values": [{"measurement": "decrease of resistance of neuroblastoma cells to oxidative stress (EC50 of SIN-1)", "setting": "[4]", "result": 50, "unit": "%"}]}, {"substance": "SEQ ID NO: 4: type IB double truncated tau, 239-326, R4", "values": [{"measurement": "microtubule assembly promotion (turbidity at 340 nm)", "setting": "[1]", "result": "lacked any MT assembly promotion"}, {"measurement": "inhibition of microtubule assembly promoted by normal human tau", "setting": "Human tubulin", "result": "does not inhibit the microtubule assembly capacity of normal tau"}, {"measurement": "inhibition of the capacity of normal tau to promote microtubule assembly", "setting": "tubulin [2]", "result": "not able to inhibit"}]}]}
